Assay [1] deals with T1, human V1a receptor (Homo sapiens, UniProt P37288).
T1 construct: expressed in transfected cells; host or cells: CHO K1 (Chinese hamster ovary), also stably transfected with a modified aequorin
As to the kind of experiment: Cellular in vitro assay for vasopressin receptor activity, V1a receptor cell line (aequorin luminescence). The class given is cell-based. The following applies: for IC50: CHO cell line transfected with human V1a receptor, [Arg8]-vasopressin at EC50 concentration, read-out: IC50 hV1a; for ratio IC50 hV2/hV1a: selectivity ratio of the IC50 values hV2/hV1a. Put shortly:
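Recombinant CHO K1 cells stably expressing human V1a receptor and aequorin, loaded with coelenterazine, were exposed to test compounds for 10 minutes before [Arg^8]-vasopressin at EC50 concentration. Calcium-triggered luminescence was measured immediately, giving IC50 values.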

For assay [2], the target named is T2, human V2 receptor (Homo sapiens, UniProt P30518).
T2 construct: expressed in transfected cells; host or cells: CHO K1 (Chinese hamster ovary) expressing firefly luciferase under a CRE-responsive promoter
As to the kind of experiment: Cellular in vitro assay for vasopressin receptor activity, V2 receptor cell line (CRE-luciferase). The class given is cell-based. The settings on record: CHO cell line transfected with human V2 receptor; [Arg8]-vasopressin at EC50 concentration; read-out: IC50 hV2. Put shortly: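 CHO K1 cells stably expressing human V2 receptor with CRE-driven firefly luciferase, plated the day before. Test compounds at various concentrations added together with [Arg^8]-vasopressin at EC50 concentration, 3 h at 37° C, 5% CO2. Luminescence read after Triton lysis and luciferin addition; IC50 values reported.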

Structures can show the parent of a compound that is named as a salt.

T1 sequence (P37288 whole entry): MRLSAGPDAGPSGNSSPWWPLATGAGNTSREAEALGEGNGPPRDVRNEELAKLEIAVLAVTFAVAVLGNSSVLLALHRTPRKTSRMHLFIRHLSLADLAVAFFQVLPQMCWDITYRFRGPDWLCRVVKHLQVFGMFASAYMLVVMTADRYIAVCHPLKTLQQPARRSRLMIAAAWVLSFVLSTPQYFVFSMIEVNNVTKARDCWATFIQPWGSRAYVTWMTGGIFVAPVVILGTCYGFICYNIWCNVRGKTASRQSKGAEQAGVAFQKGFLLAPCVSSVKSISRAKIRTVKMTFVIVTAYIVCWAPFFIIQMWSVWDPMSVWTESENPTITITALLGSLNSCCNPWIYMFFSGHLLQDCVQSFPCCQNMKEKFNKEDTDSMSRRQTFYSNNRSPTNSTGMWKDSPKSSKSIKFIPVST
T2 sequence (P30518 whole entry): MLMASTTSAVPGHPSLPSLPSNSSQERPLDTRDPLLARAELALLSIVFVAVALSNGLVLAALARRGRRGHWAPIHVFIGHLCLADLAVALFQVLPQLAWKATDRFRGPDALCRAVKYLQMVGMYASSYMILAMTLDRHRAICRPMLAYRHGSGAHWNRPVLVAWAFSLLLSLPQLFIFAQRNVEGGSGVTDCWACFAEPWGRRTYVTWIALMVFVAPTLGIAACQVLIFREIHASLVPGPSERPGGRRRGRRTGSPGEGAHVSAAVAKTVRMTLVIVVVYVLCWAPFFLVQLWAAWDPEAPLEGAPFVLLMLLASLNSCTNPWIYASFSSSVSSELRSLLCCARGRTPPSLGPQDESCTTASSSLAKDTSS

The term IC50 denotes the concentration at which inhibition is half-maximal. On to `CON(C)C(=O)c1nc(Cn2nc(-c3ccc(Cl)cc3)n(C[C@H](O)C(F)(F)F)c2=O)nn1-c1cccc(Cl)c1` [Example 45, 1-(3-Chlorophenyl)-3-({3-(4-chlorophenyl)-5-oxo-4-[(2S)-3,3,3-trifluoro-2-hydroxypropyl]-4,5-dihydro-1H-1,2,4-triazol-1-yl}methyl)-N-methoxy-N-methyl-1H-1,2,4-triazole-5-carboxamide], for which, in assay [1], the IC50 came to 0.64 nM and the “ratio IC50 hV2/hV1a” value is given as 5.7. The IC50 in assay [2] was determined as 3.66 nM.

On to `CC(C)(N)CNC(=O)c1nc(Cn2nc(-c3ccc(Cl)cc3)n(C[C@H](O)C(F)(F)F)c2=O)nn1-c1ncccc1C(F)(F)F` [Example 46, N-(2-Amino-2-methylpropyl)-3-({3-(4-chlorophenyl)-5-oxo-4-[(2S)-3,3,3-trifluoro-2-hydroxypropyl]-4,5-dihydro-1H-1,2,4-triazol-1-yl}methyl)-1-[3-(trifluoromethyl)pyridin-2-yl]-1H1,2,4-triazole-5-carboxamide], for which, in assay [1], the concentration for half-maximal inhibition (IC50) was found to be 288 nM and the “ratio IC50 hV2/hV1a” value came to 5.1. For the same compound, the IC50 in assay [2] is 1470 nM.

Regarding `O=C(NCC(F)(F)F)c1nc(Cn2nc(-c3ccc(Cl)cc3)n(C[C@H](O)C(F)(F)F)c2=O)nn1-c1ncccc1C(F)(F)F` [Example 47, 3-({3-(4-Chlorophenyl)-5-oxo-4-[(2S)-3,3,3-trifluoro-2-hydroxypropyl]-4,5-dihydro-1H-1,2,4-triazol-1-yl}methyl)-N-(2,2,2-trifluoroethyl)-1-[3-(trifluoromethyl)pyridin-2-yl]-1H-1,2,4-triazole-5-carboxamide], in assay [1], the IC50 was 0.92 nM and the “ratio IC50 hV2/hV1a” value worked out at 41.8. For the same compound, the 50% inhibitory concentration (IC50) in assay [2] was determined as 38.5 nM.

`CC(C)(C)NC(=O)c1nc(Cn2nc(-c3ccc(Cl)cc3)n(C[C@H](O)C(F)(F)F)c2=O)nn1-c1ncccc1C(F)(F)F` [Example 48, N-Tert-butyl-3-({3-(4-chlorophenyl)-5-oxo-4-[(2S)-3,3,3-trifluoro-2-hydroxypropyl]-4,5-dihydro-1H-1,2,4-triazol-1-yl}methyl)-1-[3-(trifluoromethyl)pyridin-2-yl]-1H-1,2,4-triazole-5-carboxamide]: in assay [1], the IC50 stood at 1.31 nM and the “ratio IC50 hV2/hV1a” value came to 31.3. For the same compound, the IC50 in assay [2] was found to be 41 nM.

Take `CC1(C)CN(C(=O)c2nc(Cn3nc(-c4ccc(Cl)cc4)n(C[C@H](O)C(F)(F)F)c3=O)nn2-c2ncccc2C(F)(F)F)CCN1` [Example 49, 5-(4-Chlorophenyl)-2-({5-(3,3-dimethylpiperazine-1-carbonyl)-1-[3-(trifluoromethyl)pyridin-2-yl]-1H-1,2,4-triazol-3-yl}methyl)-4-[(2S)-3,3,3-trifluoro-2-hydroxypropyl]-2,4-dihydro-3H-1,2,4-triazol-3-one hydrochloride]: the IC50 in assay [1] came to 2.5 nM; in assay [2] it was 478 nM. Also, the “ratio IC50 hV2/hV1a” value in assay [1] turned out to be 191.0.

Regarding `CC(C)(C)CNC(=O)c1nc(Cn2nc(-c3ccc(Cl)cc3)n(C[C@H](O)C(F)(F)F)c2=O)nn1-c1ncccc1C(F)(F)F` [Example 50, 3-({3-(4-Chlorophenyl)-5-oxo-4-[(2S)-3,3,3-trifluoro-2-hydroxypropyl]-4,5-dihydro-1H-1,2,4-triazol-1-yl}methyl)-N-(2,2-dimethylpropyl)-1-[3-(trifluoromethyl)pyridin-2-yl]-1H-1,2,4-triazole-5-carboxamide], in assay [1], the IC50 was determined as 0.7 nM and the “ratio IC50 hV2/hV1a” value is given as 100.0. In assay [2], the half-maximal inhibitory concentration (IC50) stood at 70 nM.

Regarding `CC(C)(O)CNC(=O)c1nc(Cn2nc(-c3ccc(Cl)cc3)n(C[C@H](O)C(F)(F)F)c2=O)nn1-c1ncccc1C(F)(F)F` [Example 52, 3-({3-(4-Chlorophenyl)-5-oxo-4-[(2S)-3,3,3-trifluoro-2-hydroxypropyl]-4,5-dihydro-1H-1,2,4-triazol-1-yl}methyl)-N-(2-hydroxy-2-methylpropyl)-1-[3-(trifluoromethyl)pyridin-2-yl]-1H-1,2,4-triazole-5-carboxamide], the IC50 in assay [1] came out at 0.47 nM; in assay [2], 38.5 nM. In addition, the “ratio IC50 hV2/hV1a” value in assay [1] was determined as 82.8.

The values above are taken from patent US11230540B2, “Substituted triazole derivatives and uses thereof” (Bayer Pharma Aktiengesellschaft, priority 2017, dated 2022).
